# Assay results reported in ChEMBL document CHEMBL1123509, “In vitro inhibition of estrogen sulfoconjugation by some 2- and 4-substituted estra-1,3,5(10)-trien-17 beta-ols1a” (J Med Chem, 1986).
# Molecular target: T1, Estrogen sulfotransferase (Sus scrofa, UniProt Q95MF8)
# T1 sequence (Q95MF8 whole entry): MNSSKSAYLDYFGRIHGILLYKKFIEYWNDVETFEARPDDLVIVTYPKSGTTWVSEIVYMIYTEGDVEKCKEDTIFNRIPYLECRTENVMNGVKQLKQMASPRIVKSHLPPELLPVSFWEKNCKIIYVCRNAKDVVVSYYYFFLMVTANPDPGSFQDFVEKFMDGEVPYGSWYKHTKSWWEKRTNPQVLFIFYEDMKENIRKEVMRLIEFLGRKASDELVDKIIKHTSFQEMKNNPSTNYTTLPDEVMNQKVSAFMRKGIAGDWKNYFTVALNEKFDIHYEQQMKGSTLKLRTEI
# Test: Compound was tested for inhibition of porcine endometrial estrogen sulfotransferase
# Details: read-out: Ki app
row,SMILES,Ki
1,C[C@]12CC[C@@H]3c4cc([N+](=O)[O-])ccc4CC[C@H]3[C@@H]1CC[C@@H]2O,9.76 µM
2,C[C@]12CC[C@@H]3c4cccc([N+](=O)[O-])c4CC[C@H]3[C@@H]1CC[C@@H]2O,2.43 µM
3,C[C@]12CC[C@@H]3c4cc(F)ccc4CC[C@H]3[C@@H]1CCC2O (stereo not given in full),13.6 µM
4,C[C@]12CC[C@@H]3c4cccc(N)c4CC[C@H]3[C@@H]1CCC2=O,10.5 µM
5,C[C@]12CC[C@@H]3c4cc(N)ccc4CC[C@H]3[C@@H]1CCC2O (stereo not given in full),7.51 µM
6,C[C@]12CC[C@@H]3c4cccc(F)c4CC[C@H]3[C@@H]1CCC2=O,14.8 µM
7,C[C@]12CC[C@@H]3c4cccc(N)c4CC[C@H]3[C@@H]1CCC2O (stereo not given in full),11.9 µM
8,C[C@]12CC[C@@H]3c4ccccc4CC[C@H]3[C@@H]1CCC2=O,25.1 µM
9,C[C@]12CC[C@@H]3c4cccc(F)c4CC[C@H]3[C@@H]1CC[C@@H]2O,10.2 µM
10,C[C@]12CC[C@@H]3c4ccccc4CC[C@H]3[C@@H]1CC[C@@H]2O,16.3 µM
